The values that follow come from PMC4114983, “The “Gate Keeper” Role of Trp222 Determines the Enantiopreference of Diketoreductase toward 2-Chloro-1-Phenylethanone” (PLoS ONE, 2014).

Assay [1] concerns the target T1, WT-DKR; diketoreductase (DKR) (Acinetobacter baylyi, UniProt B1P3E1).
T1 construct: full-length in pET22b(+), E. coli BL21(DE3); DEAE and Sephadex G-100 purified; homodimer, 283 residues per subunit
As to the kind of experiment: intrinsic Trp fluorescence quenching, quadratic fit. The assay is classed as binding. An excerpt: (§1) intrinsic Trp fluorescence quenching, quadratic fit on WT-DKR; diketoreductase (DKR)
Target sequence in this assay (B1P3E1 entry or part of it W222L): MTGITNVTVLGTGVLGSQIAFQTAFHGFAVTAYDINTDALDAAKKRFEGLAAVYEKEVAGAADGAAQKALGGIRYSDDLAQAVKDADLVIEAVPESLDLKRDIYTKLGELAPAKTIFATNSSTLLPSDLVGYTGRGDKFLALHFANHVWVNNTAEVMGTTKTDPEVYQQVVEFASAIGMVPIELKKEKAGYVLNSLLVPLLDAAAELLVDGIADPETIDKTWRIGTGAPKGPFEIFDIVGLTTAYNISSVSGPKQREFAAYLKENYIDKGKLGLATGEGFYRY

Assay [2] deals with T2, diketoreductase (DKR) (Acinetobacter baylyi, UniProt B1P3E1, W222F).
T2 construct: full-length in pET22b(+), E. coli BL21(DE3); DEAE and Sephadex G-100 purified; homodimer, 283 residues per subunit
T2 sequence (B1P3E1 entry or part of it W222F): as the sequence (B1P3E1 entry or part of it W222L) above
The assay is described as above. The assay is classed as binding.
Excerpt: as §1

For assay [3], the target named is T3, diketoreductase (DKR) (Acinetobacter baylyi, UniProt B1P3E1, W222M).
T3 construct: full-length in pET22b(+), E. coli BL21(DE3); DEAE and Sephadex G-100 purified; homodimer, 283 residues per subunit
T3 sequence (B1P3E1 entry or part of it W222M): as the sequence (B1P3E1 entry or part of it W222L) above
The assay is described as above. The assay is classed as binding.
Excerpt: as §1

In assay [4] the target is T4, diketoreductase (DKR) (Acinetobacter baylyi, UniProt B1P3E1, W222V).
T4 construct: full-length in pET22b(+), E. coli BL21(DE3); DEAE and Sephadex G-100 purified; homodimer, 283 residues per subunit
T4 sequence (B1P3E1 entry or part of it W222V): as the sequence (B1P3E1 entry or part of it W222L) above
Described as above. The assay is classed as binding.
Excerpt: as §1

For assay [5], the target named is T5, diketoreductase (DKR) (Acinetobacter baylyi, UniProt B1P3E1, W222Y).
T5 construct: full-length in pET22b(+), E. coli BL21(DE3); DEAE and Sephadex G-100 purified; homodimer, 283 residues per subunit
T5 sequence (B1P3E1 entry or part of it W222Y): as the sequence (B1P3E1 entry or part of it W222L) above
The assay is described as above. The assay is classed as binding.
Excerpt: as §1

Assay [6] deals with T1, WT-DKR; diketoreductase (DKR). The description is as above. The assay is classed as binding.
Excerpt: as §1
This is another data set of the same source.
Target sequence in this assay (B1P3E1 entry or part of it): as the sequence (B1P3E1 entry or part of it W222L) above

Assay [7] shares this target. As to the kind of experiment: NADH oxidation, absorbance. The assay is classed as biochemical. The following applies: 0.15 mM NADH constant, potassium phosphate pH 6.0; average of two measurements. An excerpt: (§2) NADH oxidation, absorbance on WT-DKR; diketoreductase (DKR)
Target sequence in this assay (B1P3E1 entry or part of it): as the sequence (B1P3E1 entry or part of it W222L) above
Assay [8] addresses T6, WT-DKR; diketoreductase (DKR) (Acinetobacter baylyi, UniProt B1P3E1, W222F).
T6 construct: full-length in pET22b(+), E. coli BL21(DE3); DEAE and Sephadex G-100 purified; homodimer, 283 residues per subunit
As to the kind of experiment: NADH oxidation, absorbance. The assay is classed as biochemical. The following applies: 0.15 mM NADH constant, potassium phosphate pH 6.0; average of two measurements.
Excerpt: as §2

The target of assay [9] is T7, WT-DKR; diketoreductase (DKR) (Acinetobacter baylyi, UniProt B1P3E1, W222M).
T7 construct: full-length in pET22b(+), E. coli BL21(DE3); DEAE and Sephadex G-100 purified; homodimer, 283 residues per subunit
T7 sequence (B1P3E1 entry or part of it W222M): as the sequence (B1P3E1 entry or part of it W222L) above
In words: NADH oxidation, absorbance. The assay is classed as biochemical. The following applies: 0.15 mM NADH constant, potassium phosphate pH 6.0; average of two measurements.
Excerpt: as §2

Assay [10] has as its target T8, diketoreductase (DKR) (Acinetobacter baylyi, UniProt B1P3E1, W222L).
T8 construct: full-length in pET22b(+), E. coli BL21(DE3); DEAE and Sephadex G-100 purified; homodimer, 283 residues per subunit
In words: NADH oxidation, absorbance. The assay is classed as biochemical. The following applies: 0.15 mM NADH constant, potassium phosphate pH 6.0; average of two measurements.
Excerpt: as §2

Assay [11] addresses T4, diketoreductase (DKR). As to the kind of experiment: NADH oxidation, absorbance. The assay is classed as biochemical. The following applies: 0.15 mM NADH constant, potassium phosphate pH 6.0; average of two measurements.
Excerpt: as §2

For assay [12], the target named is T5, diketoreductase (DKR). As to the kind of experiment: NADH oxidation, absorbance. The assay is classed as biochemical. The following applies: 0.15 mM NADH constant, potassium phosphate pH 6.0; average of two measurements.
Excerpt: as §2

Read-outs that look alike come from different tables or passages of the source.

T6 sequence (B1P3E1 entry or part of it W222F): as the sequence (B1P3E1 entry or part of it W222L) above
T8 sequence (B1P3E1 entry or part of it W222L): as above

On to `O=C(CCl)c1ccccc1` [2-chloro-1-phenylethanone], for which the equilibrium dissociation constant (Kd) in assay [1] is 458 µM; at diketoreductase (DKR) [2], 484 µM; at diketoreductase (DKR) [3] it was 457 µM; on diketoreductase (DKR) [4], 507 µM; on diketoreductase (DKR) [5], 455 µM; in assay [6] it was 460 µM. Further, the Km came out at 1130 µM in assay [7]; 4180 µM in [8]; 2800 µM in assay [9]; 3160 µM on diketoreductase (DKR) [10]; 302 µM on diketoreductase (DKR) [11]; 2510 µM on diketoreductase (DKR) [12].

A word on the Kd: it is the concentration at which binding is half-saturated. Higher therefore signals a looser complex. A word on the Km: it is the substrate concentration at which the rate is half of its maximum.
